Test results as given in patent US5076973A, “Synthesis of dolastatin 3” (Arizona Board of Regents, priority 1988, dated 1991).

Assay: Stability in solution and in storage
Type: physicochemical

CC(C)C[C@@H]1NC(=O)[C@@H]2CCCN2C(=O)[C@H](C(C)C)NC(=O)c2csc(n2)CNC(=O)c2csc(n2)[C@H](CCC(N)=O)NC1=O [dolastatin 3, Cyclo-[L-Val-L-Pro-L-Leu-L-(gln)Thz-(gly)Thz]]
Stability / decomposition in solution (in solution, especially in chloroform): tendency to undergo decomposition in solution
Stability in storage (storage of isolated natural sample): decomposed in storage
